{"source": "paper PMC10300102", "about": "“In vivo inhibition of nuclear ACE2 translocation protects against SARS-CoV-2 replication and lung damage through epigenetic imprinting” (Nature Communications, 2023)", "assay": "Mouse tolerance studies", "assay_type": "in vivo, C57BL/6 J mice", "set-up": "Mouse organ weight - i.v. treatment, Brain / Mouse organ weight - i.v. treatment, Heart / Mouse organ weight - i.v. treatment, Kidney / Mouse organ weight - i.v. treatment, Liver / Mouse organ weight - i.v. treatment, Lungs / Mouse organ weight - i.v. treatment, Spleen: unit not given here", "details": "for Mouse organ weight - i.v. treatment, Lungs / Mouse organ weight - i.v. treatment, Spleen / Mouse organ weight - i.v. treatment, Brain / Mouse organ weight - i.v. treatment, Heart / Mouse organ weight - i.v. treatment, Kidney / Mouse organ weight - i.v. treatment, Liver: S 1f, mean, N 5", "description": "For NACE2i intraperitoneal (i.p.) studies, female C57BL/6 J mice (6-8 weeks, 3 per group) were treated with a single bolus dose of NACE2i at 3, 10, 30, or 100 mg/kg intraperitoneally for seven days. For NACE2i intravenous (i.v.) studies, male C57BL/6 J mice (6–8 weeks, 5 per group) were treated with daily bolus doses of either sodium chloride 0.9% vehicle or NACE2i at 3, 10, or 30 mg/kg intravenously for six days. For ACE2i studies, male C57BL/6 J mice (6 weeks, 5 per group) were treated with daily bolus doses of either saline vehicle or ACE2i at 10, 30, or 100 mg/kg intravenously or at 3, 10, and 30 mg/kg intranasally (i.n.) for six days. All treatments were administered on day 1, and all mice were observed and weighed daily prior to being euthanized for organ examination. All mice were purchased from the Animal Resources Centre (Canning Vale, Western Australia, Australia) and studies were carried out by Agilex Biolabs (St Lucia, Queensland, Australia). Animals were maintained in housing rooms under controlled environmental conditions: individually ventilated cages (IVCs) with a 12/12 light/dark cycle. The ambient temperature is set to 20–25 °C and relative humidity at 30-70% rH. The University of Queensland Animal Ethics Committee assessed and approved all studies (project code 2021/AE000659).", "key": {"[1]": {"details": "i.p. single bolus 10 mg/kg, n=3"}, "[2]": {"details": "i.p. single bolus 30 mg/kg, n=3"}, "[3]": {"details": "i.p. single bolus 100 mg/kg, n=3"}, "[4]": {"details": "i.v. daily for 6 days 3 mg/kg, n=5"}, "[5]": {"details": "i.v. daily for 6 days 10 mg/kg, n=5"}, "[6]": {"details": "i.v. daily for 6 days 30 mg/kg, n=5"}}, "note": "Where a SMILES comes first, the peptide text is derived from it. The star is where a group is joined. Myristoyl = CCCCCCCCCCCCCC(=O)*", "data": [{"compound": "CCCCCCCCCCCCCC(=O)N[C@H](C(=O)NCC(=O)N[C@H](C(=O)N[C@@H](CCCNC(=N)N)C(=O)N[C@@H](CC(=O)O)C(=O)N[C@@H](CCCNC(=N)N)C(=O)N[C@@H](CCCCN)C(=O)N[C@@H](CCCCN)C(=O)N[C@@H](CCCCN)C(=O)N[C@@H](CC(N)=O)C(=O)N[C@@H](CCCCN)C(=O)N[C@@H](C)C(=O)N[C@@H](CCCNC(=N)N)C(=O)N[C@@H](CO)C(=O)O)[C@@H](C)CC)[C@@H](C)O", "note": "[NACE2i] (Myristoyl-TGIRDRKKKNKARS-OH)", "values": [{"measurement": "Mouse organ weight - i.v. treatment, Lungs", "setting": "i.v. 3 mg/kg", "value": 151.37}, {"measurement": "Mouse organ weight - i.v. treatment, Spleen", "setting": "i.v. 3 mg/kg", "value": 70.61}, {"measurement": "Mouse organ weight - i.v. treatment, Brain", "setting": "i.v. 10 mg/kg", "value": 451.76}, {"measurement": "Mouse organ weight - i.v. treatment, Heart", "setting": "i.v. 10 mg/kg", "value": 110.14}, {"measurement": "Mouse organ weight - i.v. treatment, Kidney", "setting": "i.v. 10 mg/kg", "value": 258.06}, {"measurement": "Mouse organ weight - i.v. treatment, Liver", "setting": "i.v. 10 mg/kg", "value": 1432.4}, {"measurement": "Mouse organ weight - i.v. treatment, Lungs", "setting": "i.v. 10 mg/kg", "value": 140.86}, {"measurement": "Mouse organ weight - i.v. treatment, Spleen", "setting": "i.v. 10 mg/kg", "value": 79.75}, {"measurement": "Mouse organ weight - i.v. treatment, Brain", "setting": "i.v. 30 mg/kg", "value": 422.35}, {"measurement": "Mouse organ weight - i.v. treatment, Heart", "setting": "i.v. 30 mg/kg", "value": 102.55}, {"measurement": "Mouse organ weight - i.v. treatment, Kidney", "setting": "i.v. 30 mg/kg", "value": 221.42}, {"measurement": "Mouse organ weight - i.v. treatment, Liver", "setting": "i.v. 30 mg/kg", "value": 1090.2}, {"measurement": "Mouse organ weight - i.v. treatment, Lungs", "setting": "i.v. 30 mg/kg", "value": 130.37}, {"measurement": "Mouse organ weight - i.v. treatment, Spleen", "setting": "i.v. 30 mg/kg", "value": 68.35}, {"measurement": "body weight", "setting": "female C57BL/6 J mice, single i.p. bolus up to 100 mg/kg, seven days", "value": "without significant changes in body weight"}, {"measurement": "Diarrhoea, mild (number of mice)", "setting": "i.p. single bolus 3 mg/kg, n=3", "value": 0}, {"measurement": "No abnormalities (number of mice)", "setting": "i.p. single bolus 3 mg/kg, n=3", "value": 3}, {"measurement": "Palpebral closure, mild (number of mice)", "setting": "i.p. single bolus 3 mg/kg, n=3", "value": 0}, {"measurement": "Piloerection, mild (number of mice)", "setting": "i.p. single bolus 3 mg/kg, n=3", "value": 0}, {"measurement": "Reduced activity, mild (number of mice)", "setting": "i.p. single bolus 3 mg/kg, n=3", "value": 0}, {"measurement": "Reduced activity, moderate (number of mice)", "setting": "i.p. single bolus 3 mg/kg, n=3", "value": 0}, {"measurement": "Right limb raised, mild (number of mice)", "setting": "i.p. single bolus 3 mg/kg, n=3", "value": 0}, {"measurement": "Diarrhoea, mild (number of mice)", "setting": "[1]", "value": 0}, {"measurement": "No abnormalities (number of mice)", "setting": "[1]", "value": 3}, {"measurement": "Palpebral closure, mild (number of mice)", "setting": "[1]", "value": 0}, {"measurement": "Piloerection, mild (number of mice)", "setting": "[1]", "value": 0}, {"measurement": "Reduced activity, mild (number of mice)", "setting": "[1]", "value": 0}, {"measurement": "Reduced activity, moderate (number of mice)", "setting": "[1]", "value": 0}, {"measurement": "Right limb raised, mild (number of mice)", "setting": "[1]", "value": 0}, {"measurement": "Diarrhoea, mild (number of mice)", "setting": "[2]", "value": 0}, {"measurement": "No abnormalities (number of mice)", "setting": "[2]", "value": 0}, {"measurement": "Palpebral closure, mild (number of mice)", "setting": "[2]", "value": 1}, {"measurement": "Piloerection, mild (number of mice)", "setting": "[2]", "value": 0}, {"measurement": "Reduced activity, mild (number of mice)", "setting": "[2]", "value": 3}, {"measurement": "Reduced activity, moderate (number of mice)", "setting": "[2]", "value": 0}, {"measurement": "Right limb raised, mild (number of mice)", "setting": "[2]", "value": 3}, {"measurement": "Diarrhoea, mild (number of mice)", "setting": "[3]", "value": 1}, {"measurement": "No abnormalities (number of mice)", "setting": "[3]", "value": 0}, {"measurement": "Palpebral closure, mild (number of mice)", "setting": "[3]", "value": 0}, {"measurement": "Piloerection, mild (number of mice)", "setting": "[3]", "value": 2}, {"measurement": "Reduced activity, mild (number of mice)", "setting": "[3]", "value": 2}, {"measurement": "Reduced activity, moderate (number of mice)", "setting": "[3]", "value": 2}, {"measurement": "Right limb raised, mild (number of mice)", "setting": "[3]", "value": 0}, {"measurement": "Hunched posture, mild (number of mice)", "setting": "[4]", "value": 0}, {"measurement": "No abnormalities (number of mice)", "setting": "[4]", "value": 5}, {"measurement": "Palpebral closure, mild (number of mice)", "setting": "[4]", "value": 0}, {"measurement": "Piloerection, mild (number of mice)", "setting": "[4]", "value": 0}, {"measurement": "Reduced activity, mild (number of mice)", "setting": "[4]", "value": 0}, {"measurement": "Reduced activity, moderate (number of mice)", "setting": "[4]", "value": 0}, {"measurement": "Tremors, mild (number of mice)", "setting": "[4]", "value": 0}, {"measurement": "Hunched posture, mild (number of mice)", "setting": "[5]", "value": 0}, {"measurement": "No abnormalities (number of mice)", "setting": "[5]", "value": 5}, {"measurement": "Palpebral closure, mild (number of mice)", "setting": "[5]", "value": 0}, {"measurement": "Piloerection, mild (number of mice)", "setting": "[5]", "value": 0}, {"measurement": "Reduced activity, mild (number of mice)", "setting": "[5]", "value": 0}, {"measurement": "Reduced activity, moderate (number of mice)", "setting": "[5]", "value": 0}, {"measurement": "Hunched posture, mild (number of mice)", "setting": "[6]", "value": 1}, {"measurement": "No abnormalities (number of mice)", "setting": "[6]", "value": 0}, {"measurement": "Palpebral closure, mild (number of mice)", "setting": "[6]", "value": 1}, {"measurement": "Piloerection, mild (number of mice)", "setting": "[6]", "value": 0}, {"measurement": "Reduced activity, mild (number of mice)", "setting": "[6]", "value": 4}, {"measurement": "Reduced activity, moderate (number of mice)", "setting": "[6]", "value": 5}, {"measurement": "Tremors, mild (number of mice)", "setting": "[6]", "value": 5}, {"measurement": "body or organ weight", "setting": "male C57BL/6 J mice, daily i.v. bolus up to 30 mg/kg for six days", "value": "without significant changes in body or organ weight"}]}]}
